From patent US9173920B2, “Methods of treating muscular wasting diseases using NF-KB activation inhibitors” (TheraLogics, Inc., priority 2006, dated 2015)

Test system: mdx−/− mice
Test: Diaphragm muscle force measurement after treating mdx−/− mice with peptides comprising NEMO binding domains (Example 3)
Assay type: in vivo
Details: for treated mice in which force output was higher: diaphragm muscle
Method: In this Example, three week old male mdx−/− mice were treated with various peptides comprising NEMO binding domains. The diaphragm muscles of the mice were then evaluated to determine the ability of the peptides to treat muscle wasting in the mdx mice.
Three week old mdx−/− mice were treated by intraperitoneal injections with 200 μg of either a wild type peptide (SEQ ID NO 19) comprising a NEMO binding domain or a mutant peptide (SEQ ID NO 20). The mice were injected every three days for a total trial period of 27 days. After 27 days, the mice were sacrificed and the diaphragm muscles were removed.
The diaphragm muscles were placed in a chamber filled with Ringer solution and perfused continuously with an O2/CO2 mixture. The muscles were then attached using a steel hook to a force transducer and subsequently stimulated at varying frequencies. At each frequency, forces were allowed to reach a steady state before the data was recorded.

[1] = three week old male mdx−/− mice, 200 μg intraperitoneal every three days for 27 days, FIG. 5

mutant peptide: mutant peptide (SEQ ID NO 20) used as comparator to the wild type NEMO binding domain peptide (TALDASALQTE; NBD mutants) [reference compound]
treated mice in which force output was higher [1]: one of the three

wild type peptide: wild type peptide (SEQ ID NO 19) comprising a NEMO binding domain (TALDWSWLQTE; NBD mutants)
effect on dystrophic phenotype in affected mice (injection, summary statement on Example 3): inhibit the dystrophic phenotype
treated mice in which force output was higher [1]: three of the four
tetanic contractions (force) of diaphragm muscles at various stimulation frequencies (three week old male mdx−/− mice, 200 μg intraperitoneal every three days for 27 days, excised diaphragm in Ringer solution, compared to mutant peptide, FIG. 5): generally higher tentanic contractions
